# Reference: US20060148850A1, “4-{'3-(Sulfonylamino) phenyl!'1-(cyclymethyl) piperidin-4-ylidene! methyl}benazmide derivativess as delta opioid receptor ligands for the treatment of pain, anxiety and functional gastrointestinal disorder” (AstraZeneca AB, priority 2003, published 2006)
# Like-named read-outs stand apart in the source and are kept apart here.
# Key:
# [1] = target: T1, cloned human μ receptors (Homo sapiens, UniProt P35372); assay: Human μ receptor binding assay (125I-FK33824 displacement)
# T1 construct: expressed in transfected cells; host or cells: Human 293S cells
# T1 sequence (P35372 whole entry): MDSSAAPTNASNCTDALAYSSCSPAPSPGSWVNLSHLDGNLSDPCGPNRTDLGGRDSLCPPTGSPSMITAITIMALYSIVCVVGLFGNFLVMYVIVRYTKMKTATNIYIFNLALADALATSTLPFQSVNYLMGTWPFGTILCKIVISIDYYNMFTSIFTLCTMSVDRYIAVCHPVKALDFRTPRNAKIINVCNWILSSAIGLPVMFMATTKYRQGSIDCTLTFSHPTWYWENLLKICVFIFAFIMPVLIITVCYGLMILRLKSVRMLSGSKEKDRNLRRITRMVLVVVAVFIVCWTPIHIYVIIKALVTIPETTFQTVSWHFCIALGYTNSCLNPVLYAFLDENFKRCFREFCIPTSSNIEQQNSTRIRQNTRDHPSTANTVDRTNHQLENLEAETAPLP
# [2] = target: T2, cloned human δ receptors (Homo sapiens, UniProt P41143); assay: Human δ receptor binding assay (125I-Deltorphin II displacement)
# T2 construct: expressed in transfected cells; host or cells: HEK-293S cells
# T2 sequence (P41143 whole entry): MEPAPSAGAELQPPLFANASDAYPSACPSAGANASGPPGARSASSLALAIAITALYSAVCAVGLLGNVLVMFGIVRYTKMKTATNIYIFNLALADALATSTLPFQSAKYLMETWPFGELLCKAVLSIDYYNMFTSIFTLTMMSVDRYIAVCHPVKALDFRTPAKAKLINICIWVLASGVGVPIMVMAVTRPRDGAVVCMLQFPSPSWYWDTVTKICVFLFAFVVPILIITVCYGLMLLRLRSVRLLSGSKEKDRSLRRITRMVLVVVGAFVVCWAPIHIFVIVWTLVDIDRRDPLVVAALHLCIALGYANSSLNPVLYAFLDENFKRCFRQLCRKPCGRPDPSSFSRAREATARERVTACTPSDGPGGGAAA
# [3] = target: T2, cloned human δ receptors; assay: Human δ receptor functional assay (GTP[γ]35S binding), high and low receptor expression; format: biochemical
# Procedure: Human 293S cells expressing cloned human κ, δ and μ receptors and neomycin resistance are grown in suspension at 37° C. and 5% CO2 in shaker flasks containing calcium-free DMEM10% FBS, 5% BCS, 0.1% Pluronic F-68, and 600 μg/ml geneticin.
# Cells are pelleted and resuspended in lysis buffer (50 mM Tris, pH 7.0, 2.5 mM EDTA, with PMSF added just prior to use to 0.1 mM from a 0.1 M stock in ethanol), incubated on ice for 15 min, then homogenized with a polytron for 30 sec. The suspension is spun at 1000 g (max) for 10 min at 4° C. The supernatant is saved on ice and the pellets resuspended and spun as before. The supernatants from both spins are combined and spun at 46,000 g(max) for 30 min. The pellets are resuspended in cold Tris buffer (50 mM Tris/Cl, pH 7.0) and spun again. The final pellets are resuspended in membrane buffer ( 50 mM Tris, 0.32 M sucrose, pH 7.0). Aliquots (1 ml) in polypropylene tubes are frozen in dry ice/ethanol and stored at −70° C. until use. The protein concentrations are determined by a modified Lowry assay with sodium dodecyl sulfate.
# The agonist activity of the compounds is measured by determining the degree to which the compounds receptor complex activates the binding of GTP to G-proteins to which the receptors are coupled. In the GTP binding assay, GTP[γ]^35S is combined with test compounds and membranes from HEK-293S cells expressing the cloned human opioid receptors or from homogenised rat or mouse brain. Agonists stimulate GTP[γ]^35S binding in these membranes. The EC50 and Emax values of compounds are determined from dose-response curves. Right shifts of the dose response curve by the delta antagonist naltrindole are performed to verify that agonist activity is mediated through delta receptors. For human […] functional assays, EC50 (low) is measured when the human δ receptors used in the assay were expressed at lower levels in comparison with those used in determining EC50 (high). The Emax values were determined in relation to the standard δ agonist SNC80, i.e., higher than 100% is a compound that have better efficacy than SNC80.
# Rat brain membranes are thawed at 37° C., passed 3 times through a 25-gauge blunt-end needle and diluted in the GTPYS binding (50 mM Hepes, 20 mM NaOH, 100 mM NaCl, 1 mM EDTA, 5 mM MgCl2, pH 7.4, Add fresh: 1 mM DTT, 0.1% BSA). 120 μM GDP final is added membranes dilutions. The EC50 and Emax of compounds are evaluated from 10-point dose-response curves done in 300 μl with the appropriate amount of membrane protein (20 μg/well) and 100000-130000 dpm of GTPγ^35S per well (0.11-0.14 nM). The basal and maximal stimulated binding are determined in absence and presence of 3 μM SNC-80. The assay performed on HEK 293s cells stably expressing cloned Delta receptors is done in a slightly different buffer (50 mM Hepes, 20 mM NaOH, 200 mM NaCl, 1 mM EDTA, 5 mM MgCl2, pH 7.4, Add fresh: 0.5% BSA, no DTT) and with a 3 μM final conc. of GDP.
# [4] = target: T3, δ receptors in rat brain membranes (Rattus norvegicus, UniProt P33533); assay: Rat brain functional assay (GTPγ35S binding); format: biochemical
# T3 construct: membranes from HEK-293S cells expressing the cloned human opioid receptors or from homogenised rat or mouse brain; from tissue; host or cells: rat brain
# T3 sequence (P33533 whole entry): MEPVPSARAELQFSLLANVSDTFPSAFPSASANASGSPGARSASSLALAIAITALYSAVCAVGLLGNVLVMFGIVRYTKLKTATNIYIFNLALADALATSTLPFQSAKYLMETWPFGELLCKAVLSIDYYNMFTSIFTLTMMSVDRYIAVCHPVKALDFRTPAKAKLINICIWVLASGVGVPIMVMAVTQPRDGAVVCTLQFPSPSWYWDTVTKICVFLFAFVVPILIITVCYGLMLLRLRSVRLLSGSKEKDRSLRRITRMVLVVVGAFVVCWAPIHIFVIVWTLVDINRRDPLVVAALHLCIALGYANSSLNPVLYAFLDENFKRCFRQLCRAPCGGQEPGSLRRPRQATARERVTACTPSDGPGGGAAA
# Procedure: Rat brains are weighed and rinsed in ice-cold PBS (containing 2.5 mM EDTA, pH 7.4). The brains are homogenized with a polytron for 30 sec (rat) in ice-cold lysis buffer (50 mM Tris, pH 7.0,2.5 mM EDTA, with phenylmethylsulfonyl fluoride added just prior use to […] from a 0.5M stock in DMSO:ethanol).
# The agonist activity of the compounds is measured by determining the degree to which the compounds receptor complex activates the binding of GTP to G-proteins to which the receptors are coupled. In the GTP binding assay, GTP[γ]^35S is combined with test compounds and membranes from HEK-293S cells expressing the cloned human opioid receptors or from homogenised rat or mouse brain. […] The EC50 and Emax values of compounds are determined from dose-response curves. […] For human a receptor functional assays, EC50 (low) is measured when the human δ receptors used in the assay were expressed at lower levels in comparison with those used in determining EC50 (high). […]
# Rat brain membranes are thawed at 37° C., passed 3 times through a 25-gauge blunt-end needle and diluted in the GTPYS binding (50 mM Hepes, 20 mM NaOH, 100 mM NaCl, 1 mM EDTA, 5 mM MgCl2, pH 7.4, Add fresh: 1 mM DTT, 0.1% BSA). […] The EC50 and Emax of compounds are evaluated from 10-point dose-response curves done in 300 μl with the appropriate amount of membrane protein (20 μg/well) and 100000-130000 dpm of GTPγ^35S per well (0.11-0.14 nM). […]
# [5] = target: cloned human κ receptors (Homo sapiens, UniProt P41145); assay: Human κ receptor binding assay (125I-DPDYN displacement); conditions: Table 1
# Chain of cloned human κ receptors (P41145 whole entry): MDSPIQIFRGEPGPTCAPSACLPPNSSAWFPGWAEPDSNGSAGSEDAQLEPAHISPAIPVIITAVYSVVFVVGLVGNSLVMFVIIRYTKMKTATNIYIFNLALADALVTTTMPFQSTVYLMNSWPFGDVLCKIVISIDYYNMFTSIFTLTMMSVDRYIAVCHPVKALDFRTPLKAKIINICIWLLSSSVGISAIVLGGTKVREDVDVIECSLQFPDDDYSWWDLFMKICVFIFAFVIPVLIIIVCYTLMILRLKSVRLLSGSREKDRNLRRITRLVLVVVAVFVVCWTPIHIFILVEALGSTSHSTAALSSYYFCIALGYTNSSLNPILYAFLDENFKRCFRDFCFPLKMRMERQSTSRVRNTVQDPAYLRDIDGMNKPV
# [6] = Table 2, lower expression, relative to SNC80, range over compounds 1,2,4,5, read-out: Human δ %EMax (low)
Compound,IC50 [1] [nM],IC50 [2] [nM],EC50 [3] [nM],"Emax [3, 6] [%]",EC50 [4] [nM],"Emax ([4]; Table 1, rat brain membranes, relative to SNC80) [%]","Emax ([3]; Table 1, higher expression, relative to standard δ agonist SNC80, read-out: Human δ % EMax (high)) [%]",IC50 [5] [nM]
"CCN(CC)C(=O)c1ccc(C(=C2CCN(Cc3cccs3)CC2)c2cccc(NS(C)(=O)=O)c2)cc1 [Compound 1, N,N-diethyl-4-{{3-[(methylsulfonyl)amino]phenyl}[1-(thien-2-ylmethyl)piperidin-4-ylidene]methyl}benzamide]",77.9 to 301,0.18 to 0.35,5.25 to 19.3,106 to 126,,,,
"CCN(CC)C(=O)c1ccc(C(=C2CCN(Cc3ccco3)CC2)c2cccc(NS(C)(=O)=O)c2)cc1 [Compound 2, N,N-diethyl-4-[[l-(2-furanylmethyl)-4-piperidinylidene][3-[(methylsulfonyl)amino]phenyl]methyl]-benzamide]",77.9 to 301,0.18 to 0.35,5.25 to 19.3,106 to 126,,,,
"CCN(CC)C(=O)c1ccc(C(=C2CCN(Cc3ccccc3)CC2)c2cccc(NS(C)(=O)=O)c2)cc1 [Compound 3, N,N-diethyl-4-[[1-(phenylmethyl)-4-piperidinylidene][3-[(methylsulfonyl)amino]phenyl]methyl]-benzamide]",35,0.56,0.53,,1.32,145,99,1050
"CCN(CC)C(=O)c1ccc(C(=C2CCN(Cc3cccnc3)CC2)c2cccc(NS(C)(=O)=O)c2)cc1 [Compound 4, N,N-diethyl-4-[[3-[(methylsulfonyl)amino]phenyl][1-(3-pyridinylmethyl)4-piperidinylidene]methyl]-benzamide]",77.9 to 301,0.18 to 0.35,5.25 to 19.3,106 to 126,,,,
CCN(CC)C(=O)c1ccc(C(=C2CCN(Cc3nccs3)CC2)c2cccc(NS(C)(=O)=O)c2)cc1 [Compound 5],77.9 to 301,0.18 to 0.35,5.25 to 19.3,106 to 126,,,,
